From patent publication US8637557B2, “Aminothiazole derivative” (Taisho Pharmaceutical Co., Ltd, priority 2009, dated 2014)

target: T1, human PI 3-kinase p120γ (Homo sapiens, UniProt P48736); experiment: PI 3-kinase p120γ enzyme activity inhibition test; format: biochemical; settings: ATP 10.0 μM, PIP2-PS 5.0 μM, 30° C., 2 hours; read-out: PI3Kγ (IC50 value class)
T1 construct: purchased Millipore Corporation
Description: Using human PI 3-kinase p120γ (manufactured by Millipore Corporation) and a mixed micellized product (hereinafter abbreviated as PIP2-PS) of the substrate thereof, L-a-Phosphatidyl-D-myo-inositol-4,5-bisphosphate (product of Calbiochem, hereinafter abbreviated as PIP2), and L-a-Phosphatidyl-L-Serine (manufactured by Sigma, hereinafter abbreviated as PS), the compound of the present invention was examined for the inhibitory action on PI3 Kinase p120γ enzyme activity (Km=8.9 μM for ATP, Km=4.0 μM for PIP2-PS).
PIP2-PS was prepared by mixing 500 μM of PIP2 and 2.5 nM of PS and sonicating the mixture for 40 minutes while ice cooling to cause micellization. ATP (final concentration 10.0 μM), [γ-^33P] ATP (final concentration 10 μCi/ml), PIP2-PS (final concentration 5.0 μM) and DMSO solutions of the test compound in different concentrations (compound final concentration 1.0×10^−5 to 2.4×10^−12 M, DMSO final concentration 0.1%) were added to PI 3-kinase p120γ, stirred and reacted at 30° C. for 2 hours. Using Phospholipid-Coated FlashPlate Microplates, 96-Well and Phospholipid FlashPlate Coating Buffer (both manufactured by PerkinElmer Co., Ltd.), PIP2-PS and phosphorylated PIP2-PS were allowed to be adsorbed to the well wall of the plate and collected. The well was washed twice with PBS (Phosphate-Buffered Saline) and dried. The radioactivity was measured using Top Count NXT (manufactured by PerkinElmer Co., Ltd.), whereby the phosphorylated amount (a) of PIP2-PS at the time of compound addition was calculated.
The same procedure was carried out in the absence of the test compound and the phosphorylated amount (b) of PIP2-PS was calculated. Further, the same procedure was carried out in the absence of both of the substrate and the test compound, and the PIP2-PS phosphorylated amount (c) of the background was calculated.
The PI3 Kinase p120γ enzyme activity suppression rate of the compound was calculated by the following formula. Suppression rate (%)=[1−(a−c)/(b−c)]×100
More specifically, using the suppression rate by the test compound of different concentrations, the IC50 value was calculated according to the dose-dependent inhibition curve analyzed by a data analysis software Origin (Lightstone Corp.) and used as the inhibitory activity index.

T1 sequence (P48736 whole entry): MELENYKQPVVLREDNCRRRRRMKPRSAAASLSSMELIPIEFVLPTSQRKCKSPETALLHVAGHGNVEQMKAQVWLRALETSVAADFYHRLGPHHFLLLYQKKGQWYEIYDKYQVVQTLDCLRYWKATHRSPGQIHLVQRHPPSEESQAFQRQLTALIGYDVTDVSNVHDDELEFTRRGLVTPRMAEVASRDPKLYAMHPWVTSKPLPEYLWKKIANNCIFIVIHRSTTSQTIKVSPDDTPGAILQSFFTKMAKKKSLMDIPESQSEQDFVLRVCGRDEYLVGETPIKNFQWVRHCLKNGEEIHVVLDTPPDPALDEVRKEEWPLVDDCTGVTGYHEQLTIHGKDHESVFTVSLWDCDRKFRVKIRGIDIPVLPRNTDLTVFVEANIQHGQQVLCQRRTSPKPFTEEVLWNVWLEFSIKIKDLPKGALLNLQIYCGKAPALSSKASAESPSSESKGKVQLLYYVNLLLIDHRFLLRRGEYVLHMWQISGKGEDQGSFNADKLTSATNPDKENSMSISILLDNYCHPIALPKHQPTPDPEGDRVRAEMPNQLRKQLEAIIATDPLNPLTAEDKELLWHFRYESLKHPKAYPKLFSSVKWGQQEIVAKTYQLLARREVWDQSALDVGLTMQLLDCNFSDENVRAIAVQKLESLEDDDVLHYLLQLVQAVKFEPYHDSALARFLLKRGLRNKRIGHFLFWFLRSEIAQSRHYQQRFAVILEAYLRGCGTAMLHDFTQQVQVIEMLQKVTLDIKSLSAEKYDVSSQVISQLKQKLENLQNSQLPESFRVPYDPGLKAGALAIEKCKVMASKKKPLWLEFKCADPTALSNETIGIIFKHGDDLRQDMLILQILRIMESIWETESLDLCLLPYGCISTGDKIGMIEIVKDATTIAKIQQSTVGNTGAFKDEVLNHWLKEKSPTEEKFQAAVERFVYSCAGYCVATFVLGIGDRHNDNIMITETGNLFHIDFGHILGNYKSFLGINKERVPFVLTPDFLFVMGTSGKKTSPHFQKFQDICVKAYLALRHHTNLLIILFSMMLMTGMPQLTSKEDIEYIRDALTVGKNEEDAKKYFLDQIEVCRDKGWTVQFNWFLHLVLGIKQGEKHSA

Compound | IC50
CC(=O)Nc1nc(C)c(-c2nc(-c3cncnc3)no2)s1 [Example 3, N-{4-methyl-5-[3-(pyrimidin-5-yl)-1,2,4-oxadiazol-5-yl]-1,3-thiazol-2-yl}acetamide] | < 100 nM
Cc1nc(NC(=O)NCCc2cn(C(C)C)cn2)sc1-c1nc(CC(C)(C)CO)no1 [Example 162] | < 100 nM
CC(=O)Nc1nc(C)c(-c2nc(C(C)(C)C)no2)s1 [Example 2, N-[5-(3-tert-butyl-1,2,4-oxadiazol-5-yl)-4-methyl-1,3-thiazol-2-yl]acetamide] | < 100 nM
CC(=O)Nc1nc(C)c(-c2nc(C(=O)N3CC(O)C3)no2)s1 [Example 90] | 100 to 500 nM
CCC(CC)(CO)Cc1noc(-c2sc(NC(C)=O)nc2C)n1 [Example 46] | < 100 nM
CC(=O)Nc1nc(C)c(-c2nc(Cc3cccnc3)no2)s1 [Example 8] | 500 to 10000 nM
COC(C)(C)Cc1noc(-c2sc(NC(C)=O)nc2C)n1 [Example 84, N-{5-[3-(2-methoxy-2-methylpropyl)-1,2,4-oxadiazol-5-yl]-4-methyl-1,3-thiazol-2-yl}acetamide] | 100 to 500 nM
COCCc1noc(-c2sc(NC(=O)NCCC(=O)OC(C)(C)C)nc2C)n1 [Example 154] | < 100 nM
COc1ccc(-c2noc(-c3sc(NC(C)=O)nc3C)n2)cn1 [Example 4] | < 100 nM
CC(=O)Nc1nc(C)c(-c2nc(C3CC3)no2)s1 [Example 83] | < 100 nM
CC(=O)Nc1nc(C)c(-c2nc(CCC(C)(C)O)no2)s1 [Example 47] | 100 to 500 nM
CC(=O)Nc1nc(C)c(-c2nc(-c3cncc(C)c3)no2)s1 [Example 15] | < 100 nM
CC(=O)Nc1nc(C)c(-c2nc(CCN3CCCC3=O)no2)s1 [Example 89] | 500 to 10000 nM
Cc1nc(NC(=O)OCCC(=O)OC(C)(C)C)sc1-c1nc(-c2cccnc2)no1 [Example 129, Tert-butyl-3-[({4-methyl-5-[3-(pyridin-3-yl)-1,2,4-oxadiazol-5-yl]-1,3-thiazol-2-yl}carbamoyl)oxy]propanoate] | < 100 nM
Cc1nc(NC(=O)NCCCN2CCOCC2)sc1-c1nc(-c2cccnc2)no1 [Example 142] | < 100 nM
CC(=O)Nc1nc(C)c(-c2nc(CC(F)(F)F)no2)s1 [Example 19] | < 100 nM
CC(=O)Nc1nc(C)c(-c2nc(-c3cccc(O)c3)no2)s1 [Example 27] | < 100 nM
Cc1nc(NC(=O)NCCC(=O)OC(C)(C)C)sc1-c1nc(CC(C)(C)O)no1 [Example 170] | < 100 nM
CC(=O)Nc1nc(C)c(-c2nc(CS(C)(=O)=O)no2)s1 [Example 24] | < 100 nM
CC(=O)Nc1nc(C)c(-c2nc(C(C)NC(C)=O)no2)s1 (stereo not drawn) [Example 77] | 500 to 10000 nM
Cc1nc(NC(=O)NCCNC(=O)C(C)(C)C)sc1-c1nc(-c2cccnc2)no1 [Example 139] | < 100 nM
CC(=O)Nc1nc(C)c(-c2nc(CC(C)(C)C(=O)O)no2)s1 [Example 108] | < 100 nM
Cc1nc(NC(=O)NCCCN(C)C)sc1-c1nc(-c2cccnc2)no1 [Example 127] | < 100 nM
CC(=O)Nc1nc(C)c(-c2nc(CCCOC(C)=O)no2)s1 [Example 30] | 500 to 10000 nM
CC(=O)Nc1nc(C)c(-c2nc(N3CC[C@@H](O)C3)no2)s1 [Example 103] | 100 to 500 nM
COCc1noc(-c2sc(NC(C)=O)nc2C)n1 [Example 50] | 100 to 500 nM
CC(=O)Nc1nc(C)c(-c2nc(C(=O)N3CCOCC3)no2)s1 [Example 72, N-{4-methyl-5-[3-(morpholin-4-ylcarbonyl)-1,2,4-oxadiazol-5-yl]-1,3-thiazol-2-yl}acetamide] | 500 to 10000 nM
CC(=O)Nc1nc(C)c(-c2nc(C(C)NS(C)(=O)=O)no2)s1 (stereo not drawn) [Example 81] | 500 to 10000 nM
Cc1nc(NC(=O)C(C)C)sc1-c1nc(-c2cccnc2)no1 [Example 115, 2-Methyl-N-{4-methyl-5-[3-(pyridin-3-yl)-1,2,4-oxadiazol-5-yl]-1,3-thiazol-2-yl}propanamide] | 100 to 500 nM
CCOC(=O)[C@H]1CCCC1NC(=O)Nc1nc(C)c(-c2nc(-c3cccnc3)no2)s1 (stereo partly drawn) [Example 144] | < 100 nM
